Experimental data: patent US6512006B1, “HIV protease inhibitors” (Warner-Lambert Company, priority 1999, dated 2003)

Experiments:
HIV protease enzyme = HIV protease enzyme (Human immunodeficiency virus type 1 group M subtype B, UniProt P04585); assay: IC50s measured in vitro against HIV protease enzyme at pH 4.7 and 6.2
[1] = biological target: T1, Recombinant HIV-1 protease (Human immunodeficiency virus type 1 group M subtype B, UniProt P04585); assay: HIV Protease Assay (Ki); type: biochemical; conditions: Inhibition of HIV Protease Ki, pH 6.2, 37° C., 40 μM substrate III
T1 construct: Recombinant HIV-1 protease (>96% purity); purchased Bachem Bioscience, Inc. (King of Prussia, Pa.)
Method: Recombinant HIV-1 protease (>96% purity) and HIV protease substrate III (the undecapeptide H-His-Lys-Ala-Arg-Val-Leu-Nph-Glu-Ala-Nle-Ser-NH2, 97% purity) were purchased from Bachem Bioscience, Inc. (King of Prussia, Pa.).
The methods employed follow the procedures of Tummino, et al., Archives of Biochemistry and Biophysics, 1995;316:523). […] (total volume, […]). […] The final inhibitor concentrations used were 0 (0.1, 0.2, in some experiments), 0.5, 1, 2, 5, 10, 20, 50, and 100 μM. The solution was mixed, incubated for 5 minutes and the reaction quenched by addition of trifluoracetic acid, 2% final. The (leu-p-nitro-phe) bond of the substrate is cleaved by the enzyme and substrate and products separated by reverse-phase HPLC (high pressure liquid chromatography). Absorbance was measured at 220 nm, peak areas determined, and percentage conversion to product used to calculate percentage control (=[% conversion (+inhibitor)/% conversion (−inhibitor)]×100).
Ki means inhibitory constant; it approximately the equilibrium binding constant for the binding of the inhibitor to the free enzyme.

[2] = tested on: HIV infected lymphocyte derived CEM cells; assay: Cellular Infection Assay, XTT cytopathic procedure in CEM cells (antiviral efficacy); type: cell-based; conditions: Human immunodeficiency virus 1, CCRF-CEM, read-out: Antiviral Efficacy EC50, CEM cells, 50% protection against HIV cytopathic effects
Method: Compounds were tested in lymphocyte derived CEM cells using the XTT cytopathic procedures and were performed at Southern Research Institute (Buckheit, et al., Antiviral Res., 1993;21:247; see also Weislow, et al., J. Nat. Cancer Inst., 1989;81:577). Compound concentrations were 0.32, 1, 3.2, 10, 32, and 100 μM. The EC50 represents the concentration of agent, which reduces HIV cytopathic effects 50% relative to untreated control. Cellular toxicity of the agents are estimated from the TC50 which represents the concentration of the agent which inhibits 50% of the viability of uninfected cells.
EC50 indicates the concentration of the drug which provide 50% protection against HIV.

[3] = Cellular toxicity in uninfected CEM cells (XTT); type: cell-based; conditions: human, uninfected CEM cells (lymphocyte derived), cytotoxicity in 50% of uninfected CEM cells; read-out: TC50 (the source's name)
Method: Compound concentrations were 0.32, 1, 3.2, 10, 32, and 100 μM.

SMILES	melting point	other results
CCCCN(C1=C(O)CC(CCc2cccc(O)c2)(C2CCCC2)OC1=O)c1ccccc1 (stereo not drawn)	64 to 66 °C	–
CCCN(C1=C(O)CC(CCc2ccccc2)(C(C)C)OC1=O)c1ccccc1 (stereo not drawn) [drawing 7]	–	IC50 (HIV protease enzyme; pH (4.7)): 4 nM; IC50 (HIV protease enzyme; pH (6.2)): 4 nM
CCCN(C1=C(O)CC(CCc2ccc(O)cc2)(C(C)C)OC1=O)c1cccc(NS(=O)(=O)c2ccc(C(F)(F)F)cn2)c1 (stereo not drawn) [Example 4, 5-Trifluoromethyl-pyridine-2-sulfonic acid [3-({4-hydroxy-6-[2-(4-hydroxy-phenyl)-ethyl]-6-isopropyl-2-oxo-5,6-dihydro-2H-pyran-3-yl}-propyl-amino)-phenyl]-amide]	–	Ki [1]: 0.01 nM; EC50 [2]: 1100 nM; CC50 [3]: 84000 nM
CCN(C1=C(O)CC(CCc2ccc(O)cc2)(C(C)C)OC1=O)c1cccc(NS(=O)(=O)c2ccc(C(F)(F)F)cn2)c1 (stereo not drawn) [Example 6, 5-Trifluoromethyl-pyridine-2-sulfonic acid [3-(ethyl-{4-hydroxy-6-[2-(4-hydroxy-phenyl)-ethyl]-6-isopropyl-2-oxo-5,6-dihydro-2H-pyran-3-yl}-amino)-phenyl]-amide]	–	Ki [1]: 0.44 nM; EC50 [2]: 1300 nM; CC50 [3]: 133000 nM
CC(C)C1(CCc2ccc(O)cc2)CC(O)=C(N(CCC#N)c2ccccc2)C(=O)O1 (stereo not drawn) [Example 21, 3-({4-Hydroxy-6-[2-(4-hydroxy-phenyl)-ethyl]-6-isopropyl-2-oxo-5,6-dihydro-2H-pyran-3-yl}-phenyl-amino)-propionitrile]	119 to 121 °C	Ki [1]: 1.6 nM; EC50 [2]: 2700 nM; CC50 [3]: 320000 nM
CC(C)C1(CCc2ccc(O)cc2)CC(O)=C(N(Cc2ccccc2)c2ccccc2)C(=O)O1 (stereo not drawn)	75 to 77 °C	–
CCCN(C1=C(O)CC(CCc2ccccc2CO)(C(C)C)OC1=O)c1ccccc1 (stereo not drawn) [Example 9, 4-Hydroxy-6-[2-(2-hydroxymethyl-phenyl)-ethyl]-6-isopropyl-3-(phenyl-propyl-amino)-5,6-dihydro-pyran-2-one]	58 to 60 °C	Ki [1]: 2 nM; EC50 [2]: 1400 nM; CC50 [3]: 101000 nM
CCCN(C1=C(O)CC(CCc2ccc(O)cc2)(C(C)C)OC1=O)c1cccc(NS(=O)(=O)c2cccs2)c1 (stereo not drawn)	85 to 87 °C	–
CCN(C1=C(O)CC(CCc2ccc(O)cc2)(C(C)C)OC1=O)c1ccccc1 (stereo not drawn)	63 to 65 °C	–
CCCN(C1=C(O)CC(CCc2ccc(O)cc2)(C(C)C)OC1=O)c1ccccc1 (stereo not drawn) [Example 7, 4-Hydroxy-6-[2-(4-hydroxy-phenyl)-ethyl]-6-isopropyl-3-(phenyl-propyl-amino)-5,6-dihydro-pyran-2-one]	171 to 173 °C	Ki [1]: 0.13 nM; EC50 [2]: 1300 nM; CC50 [3]: 200000 nM
CC(C)N(C1=C(O)CC(CCc2ccc(O)cc2)(C(C)C)OC1=O)c1ccccc1 (stereo not drawn)	75 to 77 °C	–
CC(C)CCN(C1=C(O)CC(CCc2ccc(O)cc2)(C(C)C)OC1=O)c1ccccc1 (stereo not drawn)	70 to 72 °C	–
CCN(C1=C(O)CC(CCc2ccc(O)cc2)(C(C)C)OC1=O)c1ccc2ccccc2c1 (stereo not drawn)	97 to 99 °C	–
CCCN(C1=C(O)CC(CCc2ccccc2)(C(C)C)OC1=O)c1cccc(NS(=O)(=O)c2ccc(C(F)(F)F)cn2)c1 (stereo not drawn) [Example 1, 5-Trifluoromethyl-pyridine-2-sulfonic acid {3-[(4-hydroxy-6-isopropyl-2-oxo-6-phenethyl-5,6-dihydro-2H-pyran-3-yl)-propyl-amino]-phenyl}-amide]	–	Ki [1]: 0.029 nM; EC50 [2]: 700 nM; CC50 [3]: 63000 nM
CCCN(C1=C(O)CC(CCc2ccc(O)cc2)(C2CC2)OC1=O)c1ccccc1 (stereo not drawn)	74 to 75 °C	–
CC(C)C1(CCc2ccc(O)cc2)CC(O)=C(N(c2ccccc2)C2CCCCC2)C(=O)O1 (stereo not drawn)	104 to 106 °C	–
CCN(C1=C(O)CC(CCc2ccccc2)(C(C)C)OC1=O)c1cccc(NS(=O)(=O)c2ccc(C(F)(F)F)cn2)c1 (stereo not drawn) [Example 3, 5-Trifluoromethyl-pyridine-2-sulfonic acid {3-[ethyl-(4-hydroxy-6-isopropyl-2-oxo-6-phenethyl-5,6-dihydro-2H-pyran-3-yl)-amino]-phenyl}-amide]	–	Ki [1]: 0.96 nM; EC50 [2]: 1100 nM; CC50 [3]: 66000 nM
CC(C)C1(CCc2ccc(O)cc2)CC(O)=C(N(c2ccccc2)c2cccc(O)c2)C(=O)O1 (stereo not drawn)	95 to 97 °C	–
CCCN(C1=C(O)CC(CCc2ccc(O)cc2)(C(C)C)OC1=O)c1cccc(CO)c1 (stereo not drawn) [19]	61 to 63 °C	–
CC(C)C1(CCc2ccc(O)cc2)CC(O)=C(N(c2ccccc2)C2CC2)C(=O)O1 (stereo not drawn)	102 to 104 °C	–
CCN(C1=C(O)CC(CCc2ccc(O)cc2)(C(C)C)OC1=O)c1cccc2ccccc12 (stereo not drawn)	86 to 88 °C	–
O=C1OC(CCc2cccc(O)c2)(C2CCCC2)CC(O)=C1N(c1ccccc1)c1ccccc1 (stereo not drawn)	90 to 92 °C	–

SMILES	melting point	other results
CC(C)C1(CCc2ccc(O)cc2)CC(O)=C(N(CCO)c2ccccc2)C(=O)O1 (stereo not drawn)	85 to 86 °C	–
CCCN(C1=C(O)CC(CCc2ccsc2)(C(C)C)OC1=O)c1ccccc1 (stereo not drawn)	53 to 55 °C	–
CC(C)C1(CCc2ccc(O)cc2)CC(O)=C(N(c2ccccc2)C2CCCC2)C(=O)O1 (stereo not drawn)	83 to 85 °C	–
CCCN(C1=C(O)CC(CCc2ccc(O)cc2)(C(C)C)OC1=O)c1cc(Cl)cc(Cl)c1 (stereo not drawn)	86 to 88 °C	–
CCCN(C1=C(O)CC(CCc2ccc(O)cc2)(C(C)C)OC1=O)c1cccc2c(O)cccc12 (stereo not drawn)	93 to 96 °C	–
COc1ccc(N(C2=C(O)CC(CCc3ccc(O)cc3)(C(C)C)OC2=O)c2ccccc2)cc1 (stereo not drawn)	95 to 96 °C	–
CCCCN(C1=C(O)CC(CCc2ccc(O)cc2)(C(C)C)OC1=O)c1ccccc1 (stereo not drawn) [Example 13, 3-(Butyl-phenyl-amino)-4-hydroxy-6-[2-(4-hydroxy-phenyl)-ethyl]-6-isopropyl-5,6-dihydro-pyran-2-one]	196 to 198 °C	Ki [1]: 0.2 nM; EC50 [2]: 1500 nM; CC50 [3]: 156000 nM
CCCCC1(CCc2ccc(O)cc2)CC(O)=C(N(CCC)c2ccccc2)C(=O)O1 (stereo not drawn)	58 to 60 °C	–
CCCN(C1=C(O)CC(CCc2ccc(O)cc2)(C2CCCC2)OC1=O)c1cccc(NS(=O)(=O)c2ccc(C(F)(F)F)cn2)c1 (stereo not drawn)	104 to 106 °C	–
Cc1ccc(C(C)(C)C)c(SC2=C(O)CC(CCc3ccccc3)(c3ccccc3)OC2=O)c1 (stereo not drawn)	–	IC50 (HIV protease enzyme; pH (4.7)): 10 nM; IC50 (HIV protease enzyme; pH (6.2)): 35 nM
CCCN(C1=C(O)CC(CCc2ccc(O)cc2)(C(C)C)OC1=O)c1cccc(CO)c1 (stereo not drawn) [32]	71 to 73 °C	–
CCCN(C1=C(O)CC(CCc2ccc(O)cc2)(C2CCCC2)OC1=O)c1ccccc1 (stereo not drawn)	95 °C	–
CCCN(C1=C(O)CC(CCc2ccc(O)cc2)(C(C)C)OC1=O)c1cccc(C(=O)OC)c1 (stereo not drawn)	96 to 98 °C	–
CCCCN(C1=C(O)CC(CCc2ccc(O)cc2)(C(C)C)OC1=O)c1ccccc1 (stereo not drawn) [15]	69 to 71 °C	–
Cc1ccc(C(C)(C)C)c(Sc2c(O)cc(-c3ccccc3)oc2=O)c1	–	IC50 (HIV protease enzyme; pH (4.7)): 28 nM; IC50 (HIV protease enzyme; pH (6.2)): 280 nM
CC(C)C1(CCc2ccc(O)cc2)CC(O)=C(N(c2ccccc2)c2ccccc2)C(=O)O1 (stereo not drawn)	83 to 85 °C	–
CCCN(C1=C(O)CC(CCc2ccccc2)(C(C)C)OC1=O)c1ccccc1 (stereo not drawn)	160 to 162 °C	–
CCCN(C1=C(O)CC(C)(CCc2ccc(O)cc2)OC1=O)c1ccccc1 (stereo not drawn)	179 to 181 °C	–
CCCN(C1=C(O)CC(CCc2cccc(O)c2)(C2CCCC2)OC1=O)c1ccccc1 (stereo not drawn) [Example 8, 6-Cyclopentyl-4-hydroxy-6-[2-(3-hydroxy-phenyl)-ethyl]-3-(phenyl-propyl-amino)-5,6-dihydro-pyran-2-one]	74 to 76 °C	Ki [1]: 0.35 nM; EC50 [2]: 1300 nM; CC50 [3]: 67000 nM
CCCC1(CCc2ccc(O)cc2)CC(O)=C(N(CC)c2cccc(NS(=O)(=O)c3ccc(C(F)(F)F)cn3)c2)C(=O)O1 (stereo not drawn) [Example 5, 5-Trifluoromethyl-pyridine-2-sulfonic acid [3-(ethyl-{4-hydroxy-6-[2-(4-hydroxy-phenyl)-ethyl]-2-oxo-6-propyl-5,6-dihydro-2H-pyran-3-yl}-amino)-phenyl]-amide]	–	Ki [1]: 0.17 nM; EC50 [2]: 1300 nM; CC50 [3]: 113000 nM
CCCN(C1=C(O)CC(CCc2ccc(N)cc2)(C(C)C)OC1=O)c1cccc(NS(=O)(=O)c2ccc(C(F)(F)F)cn2)c1 (stereo not drawn)	170 to 172 °C	–
CCCN(C1=C(O)CC(CCc2ccc3c(c2)OCO3)(C(C)C)OC1=O)c1ccccc1 (stereo not drawn)	93 to 95 °C	–
